Values belong to the compound of their own block, whether it stands above or below them.
Columns and labels:
HCT-116 = test: Antiproliferative activity against human HCT-116 cells overexpressing GLS1 assessed as inhibition of cell proliferation measured after 72 hrs by MTT assay; assay type: functional, cell-based; settings: HCT-116, 72 h
[1] = Metabolic stability in human liver microsomes assessed as intrinsic clearance at 10 uM by LC-MS/MS analysis; assay type: ADME, Microsome; settings: read-out: CLH
[2] = Metabolic stability in human plasma assessed as parent compound remaining at 1 uM measured after 2 hrs by LC-MS/MS analysis; assay type: ADME, cell-free; settings: read-out: Stability
MDA-MB-436 = test: Antiproliferative activity against human MDA-MB-436 cells overexpressing GLS1 assessed as inhibition of cell proliferation measured after 72 hrs by MTT assay; assay type: functional, cell-based; settings: MDA-MB-436, 72 h
[3] = target: T1, Glutaminase kidney isoform, mitochondrial (Homo sapiens, UniProt O94925); test: Allosteric inhibition of human GLS1 using glutamine as substrate incubated for 60 mins by NADH/NADPH-based absorbance analysis
T1 sequence (O94925 whole entry): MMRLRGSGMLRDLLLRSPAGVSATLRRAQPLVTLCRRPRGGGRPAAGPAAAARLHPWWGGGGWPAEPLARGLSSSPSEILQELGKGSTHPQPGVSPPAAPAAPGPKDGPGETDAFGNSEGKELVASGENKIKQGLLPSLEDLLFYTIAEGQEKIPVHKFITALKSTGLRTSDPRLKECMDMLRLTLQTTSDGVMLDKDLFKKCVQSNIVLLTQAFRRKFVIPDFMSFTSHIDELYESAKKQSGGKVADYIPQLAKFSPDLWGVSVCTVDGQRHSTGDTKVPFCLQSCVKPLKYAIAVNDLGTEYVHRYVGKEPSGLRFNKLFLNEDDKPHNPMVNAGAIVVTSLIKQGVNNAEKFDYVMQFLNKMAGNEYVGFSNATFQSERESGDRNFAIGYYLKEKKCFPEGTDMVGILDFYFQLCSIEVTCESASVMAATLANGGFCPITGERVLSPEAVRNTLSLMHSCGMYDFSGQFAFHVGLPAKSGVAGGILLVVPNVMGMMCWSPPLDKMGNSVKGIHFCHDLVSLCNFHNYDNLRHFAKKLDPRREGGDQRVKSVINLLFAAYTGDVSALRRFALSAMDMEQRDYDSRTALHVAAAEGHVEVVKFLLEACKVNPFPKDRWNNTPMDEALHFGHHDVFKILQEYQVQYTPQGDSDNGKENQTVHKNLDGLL

[4] = Metabolic stability in human liver microsomes assessed as half life at 10 uM by LC-MS/MS analysis; assay type: ADME, Microsome; settings: liver microsomes
[5] = Metabolic stability in human liver microsomes assessed as parent compound remaining at 10 uM measured after 60 mins by LC-MS/MS analysis; assay type: ADME, Microsome; settings: liver microsomes, read-out: Stability
[6] = Metabolic stability in human liver microsomes assessed as parent compound remaining at 10 uM measured after 30 mins by LC-MS/MS analysis; assay type: ADME, Microsome; settings: liver microsomes, read-out: Stability

Compound: CO[C@H](C(=O)Nc1nnc(NC2CCN(c3nnc(NC(=O)CCc4cn(Cc5ccc(C(F)(F)F)cc5)nn4)s3)CC2)s1)c1ccccc1
IC50 (HCT-116): 0.3 µM | microsomal CLint at 10 µM [1]: 9.21 µL/min/mg | remaining at 2 h, 1 µM [2]: 95% | IC50 (MDA-MB-436): 1.09 µM | IC50 [3]: 0.0237 µM | half-life at 10 µM [4]: 3.14 h

Compound: Nc1nnc(NC2CCN(c3ccc(NC(=O)CCc4cn(Cc5ccc(C(F)(F)F)cc5)nn4)nn3)CC2)s1
IC50 [3]: > 10 µM

Compound: O=C(Cc1ccccc1)Nc1nnc(NC2CCN(c3nnc(NC(=O)CCc4cn(Cc5ccc(OC(F)(F)F)cc5)nn4)s3)CC2)s1
IC50 (HCT-116): 0.19 µM | IC50 (MDA-MB-436): 0.4 µM | IC50 [3]: 0.0171 µM

Compound: Cc1ccc(Cn2cc(CCC(=O)Nc3ccc(N4CCC(Nc5nnc(N)s5)CC4)nn3)nn2)cc1
IC50 [3]: > 10 µM

Compound: Cc1cccc(C)c1Cn1cc(CCC(=O)Nc2ccc(N3CCC(Nc4nnc(NC(=O)Cc5ccccn5)s4)CC3)nn2)nn1
IC50 (HCT-116): 6.09 µM | IC50 (MDA-MB-436): 6.98 µM | IC50 [3]: 0.0678 µM

Compound: COc1ccc(Cn2cc(CCC(=O)Nc3nnc(N4CC[C@@H](Nc5nnc(NC(=O)Cc6ccccc6)s5)C4)s3)nn2)cc1
IC50 (HCT-116): 0.56 µM | IC50 (MDA-MB-436): 0.76 µM | IC50 [3]: 0.057 µM

Compound: CO[C@@H](C(=O)Nc1nnc(NC2CCN(c3nnc(NC(=O)CCc4cn(CC5=CC=C(C(F)(F)F)CC5)nn4)s3)CC2)s1)c1ccccc1
IC50 (HCT-116): 0.35 µM | microsomal CLint at 10 µM [1]: 15.1 µL/min/mg | remaining at 2 h, 1 µM [2]: 91% | IC50 (MDA-MB-436): 0.84 µM | IC50 [3]: 0.00485 µM | half-life at 10 µM [4]: 1.91 h

Compound: Cc1ccc(Cn2cc(CCC(=O)Nc3nnc(N4CC[C@H](Nc5nnc(NC(=O)Cc6ccccc6)s5)C4)s3)nn2)cc1
IC50 (HCT-116): 12.5 µM | IC50 (MDA-MB-436): > 20 µM | IC50 [3]: 0.312 µM

Compound: COc1ccc(Cn2cc(CCC(=O)Nc3ccc(N4CC[C@@H](Nc5nnc(NC(=O)Cc6ccccn6)s5)C4)nn3)nn2)cc1OC
IC50 (HCT-116): 3.88 µM | IC50 (MDA-MB-436): 4.48 µM | IC50 [3]: 0.0357 µM

Compound: COc1ccc(Cn2cc(CCC(=O)Nc3ccc(N4CCC(Nc5nnc(NC(=O)Cc6ccccn6)s5)CC4)nn3)nn2)cc1
IC50 (HCT-116): 1.45 µM | IC50 (MDA-MB-436): 2.04 µM | IC50 [3]: 0.0249 µM

Other lines, results leading:

IC50 (HCT-116): 0.57 µM | IC50 (MDA-MB-436): 0.47 µM | IC50 [3]: 0.02 µM
Compound: Cc1ccc(Cn2cc(CCC(=O)Nc3ccc(N4CCC(Nc5nnc(NC(=O)Cc6ccccn6)s5)CC4)nn3)nn2)cc1

IC50 (HCT-116): 5.75 µM | IC50 (MDA-MB-436): 6.72 µM | IC50 [3]: 0.0607 µM
Compound: COc1ccc(Cn2cc(CCC(=O)Nc3ccc(N4CCC(Nc5nnc(NC(=O)Cc6ccccn6)s5)CC4)nn3)nn2)cc1OC

remaining at 1 h, 10 µM [5]: 35% | microsomal CLint at 10 µM [1]: 40.2 µL/min/mg | remaining at 2 h, 1 µM [2]: 72% | remaining at 0.5 h, 10 µM [6]: 56% | half-life at 10 µM [4]: 0.655 h
Compound: Cc1ccc(Cn2cc(CCC(=O)Nc3ccc(CCCCc4nnc(NC(=O)Cc5ccccn5)s4)nn3)nn2)cc1

IC50 (HCT-116): 0.12 µM | microsomal CLint at 10 µM [1]: 25.2 µL/min/mg | remaining at 2 h, 1 µM [2]: 76% | IC50 (MDA-MB-436): 0.53 µM | IC50 [3]: 0.0174 µM | half-life at 10 µM [4]: 1.15 h
Compound: O=C(Cc1ccccc1)Nc1nnc(NC2CCN(c3nnc(NC(=O)c4ccn(Cc5ccc(C(F)(F)F)cc5)n4)s3)CC2)s1

IC50 (HCT-116): 8.27 µM | IC50 (MDA-MB-436): > 20 µM | IC50 [3]: 0.227 µM
Compound: O=C(Cc1ccccc1)Nc1nnc(N[C@H]2CCN(c3nnc(NC(=O)CCc4cn(Cc5ccc(C(F)(F)F)cc5)nn4)s3)C2)s1

IC50 (HCT-116): 0.53 µM | IC50 (MDA-MB-436): 0.84 µM | IC50 [3]: 0.0183 µM
Compound: O=C(CCc1cn(Cc2ccc(C(F)(F)F)cc2)nn1)Nc1ccc(N2CCC(Nc3nnc(NC(=O)Cc4ccccn4)s3)CC2)nn1

IC50 (HCT-116): 0.29 µM | IC50 (MDA-MB-436): 0.63 µM | IC50 [3]: 0.0124 µM
Compound: O=C(Cc1ccccc1)Nc1nnc(N[C@@H]2CCN(c3nnc(NC(=O)CCc4cn(Cc5ccc(C(F)(F)F)cc5)nn4)s3)C2)s1

IC50 (HCT-116): 0.58 µM | IC50 (MDA-MB-436): 1.65 µM | IC50 [3]: 0.0167 µM
Compound: O=C(Cc1ccccc1)Nc1nnc(N[C@@H]2CCN(c3nnc(NC(=O)CCc4cn(Cc5ccc(OC(F)(F)F)cc5)nn4)s3)C2)s1

IC50 (HCT-116): 3.96 µM | IC50 (MDA-MB-436): 4.58 µM | IC50 [3]: 0.0691 µM
Compound: Cc1cccc(C)c1Cn1cc(CCC(=O)Nc2nnc(N3CCC(Nc4nnc(NC(=O)Cc5ccccc5)s4)CC3)s2)nn1

IC50 (HCT-116): > 20 µM | IC50 (MDA-MB-436): > 20 µM | IC50 [3]: > 1 µM
Compound: O=C(CCc1cn(Cc2ccc(C(F)(F)F)cc2)nn1)Nc1ccc(N2CC[C@H](Nc3nnc(NC(=O)Cc4ccccn4)s3)C2)nn1

IC50 (HCT-116): 0.68 µM | IC50 (MDA-MB-436): 1.54 µM | IC50 [3]: 0.0113 µM
Compound: COc1ccc(Cn2cc(CCC(=O)Nc3ccc(N4CC[C@@H](Nc5nnc(NC(=O)Cc6ccccn6)s5)C4)nn3)nn2)cc1

From ChEMBL document CHEMBL5154870, “Discovery of novel glutaminase 1 allosteric inhibitor with 4-piperidinamine linker and aromatic heterocycles” (Eur J Med Chem, 2022)
